For data set [1] the following is noted: cited from earlier work.
Data set [2] deals with primary CLL blasts. Briefly: Growth inhibition of primary CLL blasts (Mosaic Spot Assay). It counts as cell-based. Particulars: Homo sapiens, 96 h, 4 days. From the text:
A cytotoxic dose of cisplatin acted as a positive control, with no drug treatment as a negative control.

Data set [3] has as its system ST2761B/GCB. Briefly: DLBCL PDX model. It counts as in vivo, mouse. Conditions: 24 days, QD PO, TL-895 and ibrutinib 25 mg/kg, acalabrutinib 30 mg/kg. The procedure: (§1) All three compounds were formulated in a solution of 20% kleptose (hydroxypropyl β-cyclodextrin) in 50 mM citrate and administered QD PO during the treatment periods given for each model.
(§2) For mean values > 0: %ΔT/ΔC=endtumorvolumetreatment-starttumorvolumetreatment/endtumorvolumecontrol-starttumorvolumecontrol×100
(§3) For mean values ≤ 0 (i.e. regression): %ΔT/ΔC=endtumorvolumetreatment-starttumorvolumetreatment/starttumorvolumecontrol×100
(§4) The research use of patient material in PDX models at Crown Bioscience, XenoSTART and EPO-GmbH was approved by the local Institutional Ethical Review Boards and the patients provided written informed consent. Molecular analysis was performed on samples from each model using the EdgeSeq DLBCL Cell of Origin Assay (HTG Molecular Diagnostics, Tucson, AZ, USA) to confirm ABC-GCB DLBCL subtype.
(§5) Stock mice inoculated with human DLBCL cancer tissues were euthanized by progressive hypoxemia with CO2 and tumors were harvested. Tumor fragments were used at three different contract research organizations for xenotransplantation into different mouse strains for the following models: (1) 6-week-old female nude (NMRI:nu/nu) or CB17-SCID mice (Javier Labs, France): Ly12638, Ly11212, and Ly13005 (Experimental Pharmacology and Oncology Berlin-Buch GmbH [EPO-GmbH], Germany); (2) 6–8-week-old female BALB/c nude or NOD SCID mice (Beijing HFK Bioscience Co., Ltd. Beijing, China): LY0257, LY2214, LY3604, LY2298, LY2264, LY2318, and LY2345 (Crown Bioscience Inc, Taicang, China); and (3) 6–12-week-old female CB-17 SCID mice (CB17/Icr-Prkdc^scid/IcrIcoCrl Charles River Laboratories, Wilmington, MA, USA): ST118B, ST949B, ST359, ST949, ST2761B, ST2963, ST1361, ST2078, ST1735B, ST2902, and ST3497 (XenoSTART, San Antonio, TX, USA).
(§6) When the average tumor volume was within a pre-determined range (100–300 mm^3), mice were assigned to treatment groups to balance the mean starting tumor volumes (n = 5 for all models except LY13005, which was n = 3). […] Tumor volumes were recorded 2–3 times per week. Mean %∆T/∆C was calculated at the end of treatment as described above for MCL models.
(§7) Tumor volume was used as the measure of efficacy for statistical analyses of in vivo xenograft studies. Tumor volume data from individual studies were log-transformed and statistically analyzed using repeated measures analysis of covariance (RM-ANCOVA) to determine significant treatment effects, followed by post hoc Tukey’s test for multiple pairwise comparisons (all α = 0.05) using R software. Day 0 data were used only as covariates in the analyses because tumor measurements on that day were recorded before the first treatments were administered.

Data set [4] concerns ST2902/GCB. Briefly: DLBCL PDX model. It counts as in vivo, mouse. Conditions: 22 days, QD PO, TL-895 and ibrutinib 25 mg/kg, acalabrutinib 30 mg/kg. The procedure: as §1, §2, §3, §4, §5, §6, §7
For data set [5], the system named is ST949B/ABC. Description: DLBCL PDX model. Conditions: 9 days, QD PO, TL-895 and ibrutinib 25 mg/kg, acalabrutinib 30 mg/kg. It counts as in vivo, mouse. As for the experimental part: as §1, §2, §3, §4, §5, §6, §7
In data set [6] the test system is Maver-1. Briefly: Cell line-derived xenograft model of MCL. Conditions: Maver-1 xenograft, SCID mice, 25 mg/kg QD PO, 14 days. The data set is classed as in vivo, mouse. The procedure:
as §1
(§8) Maver-1, Granta519, and Mino mouse MCL studies were performed at Shanghai ChemPartner Co., Ltd, Shanghai, China. Five-to-six-week old female severe combined immune deficiency (SCID) mice (Vital River Lab Animal Technology Co., Ltd, Beijing, China) were inoculated with Maver-1, Granta519, or Mino cells (all obtained from ATCC) by subcutaneous (s.c.) injection (0.2 mL containing 5 × 10^7 cells/mL in a 1:1 suspension of medium:Matrigel).
(§9) […]. Tumor volumes were recorded three times per week. Tumor growth inhibition was expressed as the mean percentage treatment (T)/control (C) ratio [%∆T/∆C] and was calculated at the end of treatment.
as §7

Data set [7] deals with Granta519. Description: Cell line-derived xenograft model of MCL. It counts as in vivo, mouse. Conditions: SCID mice, 25 mg/kg QD PO, 14 days. The procedure:
as §1, §8, §9, §7

The subject of data set [8] is Mino. Briefly: Cell line-derived xenograft model of MCL. Conditions: SCID mice, 25 mg/kg QD PO, 27 days.
Data set [9] concerns Jeko-1. Briefly: Cell line-derived xenograft model of MCL. The data set is classed as in vivo, mouse. Particulars: Jeko-1 xenograft, nude mice, 25 mg/kg QD PO, 20 days. As for the experimental part:
All three compounds were formulated in a solution of 20% kleptose (hydroxypropyl β-cyclodextrin) in 50 mM citrate and administered QD PO during the treatment periods given for each model. […] Studies in the Jeko-1 mouse MCL model were performed at EMD Serono Research and Development Institute, Billerica, MA, USA. Six-to-eight-week old female nude mice (Crl:NU-Foxn1nu; Charles River Laboratories, Wilmington) were inoculated with Jeko-1 cells (obtained from ATCC) by s.c. injection (10 × 10^6 cells in 0.2 mL phosphate buffered saline with Matrigel). […] Tumor volumes were recorded twice weekly. Mean %∆T/∆C was calculated at the end of treatment as outlined above. Tumor volume was used as the measure of efficacy for statistical analyses of in vivo xenograft studies. Tumor volume data from individual studies were log-transformed and statistically analyzed using repeated measures analysis of covariance (RM-ANCOVA) to determine significant treatment effects, followed by post hoc Tukey’s test for multiple pairwise comparisons (all α = 0.05) using R software. Day 0 data were used only as covariates in the analyses because tumor measurements on that day were recorded before the first treatments were administered.

For data set [10], the target named is BTK (Homo sapiens, UniProt Q06187). Briefly: Millipore Kinase Profiler screening panel, BTK. It counts as biochemical. Details: purchased EMD Millipore. Particulars: n = 2. As for the experimental part:
The Kinase Profiler™ screening panel (EMD Millipore, Burlington, MA, USA) was used to test the inhibitory activity of TL-895 against 270 protein kinases. Kinases were incubated with TL-895 (1 µM) for 20 min to 4 h at room temperature, according to standard kinome screen procedures. […]

Data set [11] deals with primary human hepatocytes. Briefly: Cytotoxicity by ATP content (CellTiter-Glo). It counts as cell-based. Conditions: hepatocyte EC50 at 24 h. Background: ATP-based viability assays read luminescence as a measure of living cells.
Protocol: (§10) HepG2 cells (human hepatocellular carcinoma [epithelial]) and primary human hepatocytes were cultured in DMEM/F-12 medium supplemented with antibiotics, sodium pyruvate, insulin and 10% fetal calf serum. During the testing steps, the medium was replaced by serum-free media containing bovine serum albumin (BSA) and dexamethasone. All the cultures are incubated at 37 °C in a humidified chamber containing 5% CO2. […] HepG2 and primary hepatocytes were cultured in 96-well tissue culture plates either for luminescence (2E4/well in 100 µL) or pre-coated with collagen I (3.5E4/well in 100 µL, respectively).
(§11) For the cytotoxicity data, the % values relative (%RV) to the vehicle controls were calculated for each dose level. […] The overall EC50s were the averages of the values obtained from each experiment (PRISM® GraphPad™ Software, Boston, MA).
Data set [12] can be described thus: Cytotoxicity by ATP content (CellTiter-Glo). It counts as cell-based, human. Particulars: primary human hepatocytes, 24 h.
Protocol: as §10, §11

What is called inhibition is how much of the control response was suppressed. Low readings indicate a response near the control, high ones a response far below the control. By IC50 is commonly meant the concentration that gives 50% inhibition. Lower therefore signals greater potency in that assay. For orientation: EC50 means the midpoint of the concentration-response curve. Lower therefore signals a more potent agent.

Sequence of BTK (Q06187 whole entry): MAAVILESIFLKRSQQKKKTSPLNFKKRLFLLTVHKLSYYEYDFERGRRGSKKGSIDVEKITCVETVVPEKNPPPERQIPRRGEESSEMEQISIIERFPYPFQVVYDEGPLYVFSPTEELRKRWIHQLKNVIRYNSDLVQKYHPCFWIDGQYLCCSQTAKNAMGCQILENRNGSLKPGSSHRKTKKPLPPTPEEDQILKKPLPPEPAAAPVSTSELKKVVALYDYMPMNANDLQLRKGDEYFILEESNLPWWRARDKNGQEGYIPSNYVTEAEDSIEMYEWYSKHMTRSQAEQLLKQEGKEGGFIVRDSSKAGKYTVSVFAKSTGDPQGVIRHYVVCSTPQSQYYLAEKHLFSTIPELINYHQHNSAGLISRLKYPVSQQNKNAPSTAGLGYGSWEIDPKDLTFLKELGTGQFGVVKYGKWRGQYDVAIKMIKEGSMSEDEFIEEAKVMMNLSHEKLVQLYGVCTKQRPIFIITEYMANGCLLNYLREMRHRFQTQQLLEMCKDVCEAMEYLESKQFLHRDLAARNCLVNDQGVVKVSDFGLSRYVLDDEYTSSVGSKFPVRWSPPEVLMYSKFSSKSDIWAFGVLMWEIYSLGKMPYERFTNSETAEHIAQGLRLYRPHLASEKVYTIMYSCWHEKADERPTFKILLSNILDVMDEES

`CC#CC(=O)N1CCC[C@H]1c1nc(-c2ccc(C(=O)Nc3ccccn3)cc2)c2c(N)nccn12` [Acalabrutinib]: the Exposure in data set [1] (MCL, acalabrutinib oral 100 mg BID) was 1111 ng·h/mL. Moreover, in data set [2], the inhibition at 0.008 µM amounted to 34%, the inhibition at 0.04 µM was 40%, the inhibition at 0.2 µM stood at 47% and the inhibition at 1 µM is 56%. Besides, in [2], testing at 5 µM gave an inhibition of 64%, the inhibition at 25 µM stood at 80% and the IC50 is about 200 nM. Also, the “%ΔT/ΔC” value in data set [3] is 94%. In addition, in data set [4], the “%ΔT/ΔC” value worked out at 85%. Further, the “%ΔT/ΔC” value in data set [5] came out at 103%.

Turning to `C=CC(=O)N1CCC[C@@H](n2nc(-c3ccc(Oc4ccccc4)cc3)c3c(N)ncnc32)C1` [Ibrutinib], the “Tumor growth vs vehicle” value in [6] was “Neither TL-895 nor ibrutinib had any significant effects on tumor growth”; in [7], “Neither TL-895 nor ibrutinib had any significant effects on tumor growth”; in data set [8], “Significant treatment effects were observed for TL-895 and ibrutinib versus vehicle”; in data set [9] it was “Neither TL-895 nor ibrutinib had any significant effects on tumor growth”. For the same molecule, in data set [1] (patients with MCL, ibrutinib 560 mg QD), the “Area under the curve (AUC)” value is 956 ng·h/mL. Besides, the “%ΔT/ΔC” value turned out to be 71% in data set [3] and 92% in [4].

Take `C=CC(=O)N1CCC(F)(CNc2ncnc(N)c2-c2ccc(Oc3ccccc3)cc2)CC1` [TL-895]: the IC50 in [10] is 18.5 nM; in data set [2], about 200 nM. For the same molecule, in data set [11], the “Cytotoxicity EC50 in primary human hepatocytes relative to IC50 in primary CLL blasts” value came out at 32 fold. Moreover, in data set [12], the EC50 at 24 h was 6400 nM. For the same molecule, the “Tumor growth vs vehicle” value was “Neither TL-895 nor ibrutinib had any significant effects on tumor growth” in data set [6], “Neither TL-895 nor ibrutinib had any significant effects on tumor growth” in [7], “significantly inhibited tumor growth” in data set [8] and “Neither TL-895 nor ibrutinib had any significant effects on tumor growth” in data set [9]. In data set [2], this molecule returned an inhibition at 0.008 µM of 43%. The same molecule gave an inhibition at 0.04 µM in [2] of 50%. This molecule also gave an inhibition at 0.2 µM in data set [2] of 53%. In data set [2], this molecule gave an inhibition at 1 µM of 61%. Moreover, the inhibition at 5 µM in data set [2] was determined as 72%. The same molecule had an inhibition at 25 µM in data set [2] of 90%. For the same molecule, the “%ΔT/ΔC” value is 90% in [3], 104% in data set [4] and 39% in data set [5].

The record behind these values is article PMC10663516 (Scientific Reports, 2023).
